In patent US9321722B2, “Bis-indolic derivatives, their uses in particular as antibacterials” (UNIVERSITE JOSEPH FOURIER, priority 2011, dated 2016):
In brackets after ≈: the same amount, converted by molar mass.

Columns and labels:
[1] = system: S. aureus ATCC 25923; assay: MIC microdilution (Table I-1); format: cell-based; details: Staphylococcus aureus, ATCC25923, read after 18 hours
Description: (§1) The microdilution method recommended by the Clinical and Laboratory Standard Institute [M07-A8, Vol. 29, N^o 2] was used. The activity of indolic compounds was tested against 29 bacterial strains belonging to 17 different species and 12 different genera (Staphylococcus, Streptococcus, Enterococcus, Listeria, Bacillus, Haemophilus, Escherichia, Klebsiella, Enterobacter, Serratia, Pseudomonas, and Acinetobacter). Bacterial inocula were prepared in Mueller Hinton broth (MH2, bioMerieux, Marcy L'Etoile, France), supplemented with 10% sheep blood for fastidious species (i.e., Streptococcus pneumoniae and Haemophilus influenzae). They were dispensed in 96 well microtiter plates (5×10^5 CFU/ml of final inoculum). Indolic compounds were added to the wells as to obtain two-fold serial concentrations (0.50-128 mg/L of final concentrations). Plates were incubated at 37° C. in ambient air, or at 37° C. in 5% CO2 enriched atmosphere for fastidious species. […] Drug-free cultures served as growth controls. Cultures receiving gentamicin, ciprofloxacin or cefotaxime served as positive controls.

[2] = system: E. faecalis ATCC 29212; assay: MIC microdilution (Table I-1); format: cell-based; details: Enterococcus faecalis, ATCC29212, read after 18 hours, read-out: MIC
Description: as §1

[3] = system: Pseudomonas aeruginosa CIP 5933; assay: MIC microdilution (Table I-1); format: cell-based; details: CIP5933, read after 18 hours
Description: as §1

[4] = system: Escherichia coli ATCC 25922; assay: MIC microdilution (Table I-1); format: cell-based; details: ATCC25922, read after 18 hours
Description: as §1

[5] = system: S. pneumoniae ATCC 49619; assay: MIC microdilution (Table I-1); format: cell-based; details: Streptococcus pneumoniae, ATCC49619, read after 18 hours
Description: as §1

[6] = system: Acinetobacter baumanii ATCC 19606; assay: MIC microdilution (Table I-1); format: cell-based; details: Acinetobacter baumannii, ATCC19606, read after 18 hours
Description: as §1

[7] = system: E. faecium CIP 54.32; assay: MIC microdilution (Table I-1); format: cell-based; details: Enterococcus faecium, CIP54, read after 18 hours, read-out: MIC
Description: as §1

[8] = system: S. mitis CIP 103335; assay: MIC microdilution (Table I-1); format: cell-based; details: Streptococcus mitis, CIP103335, read after 18 hours, read-out: MIC
Description: as §1

[9] = system: Listeria innocua CIP 80.11; assay: MIC microdilution (Table I-1); format: cell-based; details: CIP80, read after 18 hours, read-out: MIC
Description: as §1

[10] = system: Serratia marcescens CIP 103551; assay: MIC microdilution (Table I-1); format: cell-based; details: CIP103551, read after 18 hours
Description: as §1

[11] = system: Klebsiella pneumoniae ATCC 35657; assay: MIC microdilution (Table I-1); format: cell-based; details: ATCC35657, read after 18 hours, read-out: MIC
Description: as §1

[12] = system: Enterobacter cloacae ATCC 13047; assay: MIC microdilution (Table I-1); format: cell-based; details: ATCC13047, read after 18 hours
Description: as §1

[13] = system: S. pyogenes (group A) CIP 104226; assay: MIC microdilution (Table I-1); format: cell-based; details: Streptococcus pyogenes, CIP104226, read after 18 hours, read-out: MIC
Description: as §1

[14] = system: Haemophilus influenzae ATCC 49766; assay: MIC microdilution (Table I-1); format: cell-based; details: ATCC49766; Haemophilus influenzae ATCC 49766; read after 18 hours; read-out: MIC
Description: as §1

[15] = system: Bacillus subtilis CIP 5262; assay: MIC microdilution (Table I-1); format: cell-based; details: CIP5262, read after 18 hours, read-out: MIC
Description: as §1

[16] = system: S. agalactiae (group B) ATCC 12400; assay: MIC microdilution (Table I-1); format: cell-based; details: Streptococcus agalactiae, ATCC12400, read after 18 hours, read-out: MIC
Description: as §1

[17] = system: MRC5 (human lung fibroblast); assay: In vitro cytotoxicity; format: cell-based; details: for inhibition at 10 µM: MRC5, 10^−5 M, read-out: % of cellular growth inhibition; for inhibition at 1 µM: MRC5, 10^−6 M, read-out: % of cellular growth inhibition (converted)
Description: (§2) In vitro cytotoxicity was assayed on three cell lines—KB (human mouth carcinoma), MCR5 (human lung fibroblast) and HCT116 (human colon tumor). Results are presented in table III as % of cellular growth inhibition in presence of 10^−5 M and 10^−6 M of the tested bis-indolic derivatives.

[18] = system: KB (human mouth carcinoma); assay: In vitro cytotoxicity; format: cell-based; details: KB; for inhibition at 10 µM: 10^−5 M, read-out: % of cellular growth inhibition; for inhibition at 1 µM: 10^−6 M, read-out: % of cellular growth inhibition (converted)
Description: as §2

[19] = system: HCT116 (human colon tumor); assay: In vitro cytotoxicity; format: cell-based; details: for inhibition at 10 µM: HCT-116, HCT116, 10^−5 M, read-out: % of cellular growth inhibition; for inhibition at 1 µM: HCT-116, HCT116, 10^−6 M, read-out: % of cellular growth inhibition (converted)
Description: as §2

[20] = system: S. aureus ATCC 106414 (VISA); assay: MIC microdilution (Table I-1); format: cell-based, Staphylococcus aureus; details: Staphylococcus aureus, read after 18 hours, read-out: MIC
Description: as §1

[21] = system: S. aureus CIP 103428; assay: MIC microdilution (Table I-1); format: cell-based, Staphylococcus aureus; details: Staphylococcus aureus, CIP103428, read after 18 hours, read-out: MIC
Description: as §1

[22] = system: S. aureus ATCC 6538; assay: MIC microdilution (Table I-1); format: cell-based, Staphylococcus aureus; details: Staphylococcus aureus, ATCC6538, read after 18 hours, read-out: MIC
Description: as §1

[23] = system: S. aureus ATCC 29213; assay: MIC microdilution (Table I-1); format: cell-based, Staphylococcus aureus; details: Staphylococcus aureus, ATCC29213, read after 18 hours, read-out: MIC
Description: as §1

[24] = system: S. aureus CIP 65.25 (MRSA); assay: MIC microdilution (Table I-1); format: cell-based, Staphylococcus aureus; details: Staphylococcus aureus, read after 18 hours, read-out: MIC
Description: as §1

[25] = system: S. aureus SA-1199B; assay: MIC microdilution (Table I-1); format: cell-based, Staphylococcus aureus; details: Staphylococcus aureus, SA1199B, 18 h
Description: as §1

[26] = system: S. aureus ATCC 9144; assay: MIC microdilution (Table I-1); format: cell-based, Staphylococcus aureus; details: Staphylococcus aureus, ATCC9144, read after 18 hours, read-out: MIC
Description: as §1

[27] = system: S. aureus CIP 65.6; assay: MIC microdilution (Table I-1); format: cell-based, Staphylococcus aureus; details: Staphylococcus aureus, CIP65, read after 18 hours, read-out: MIC
Description: as §1

[28] = system: S. aureus ATCC 33592 (MRSA); assay: MIC microdilution (Table I-1); format: cell-based, Staphylococcus aureus; details: Staphylococcus aureus, read after 18 hours, read-out: MIC
Description: as §1

CC(C)(C)OC(=O)N1CCN(C(=O)C(=O)c2c[nH]c3ccc(Br)cc23)C(c2c[nH]c3ccc(Br)cc23)C1 (stereo not shown) [Compound 6f, tert-Butyl 3-(5-bromo-1H-indol-3-yl)-4-(2-(5-bromo-1H-indol-3-yl)-2-oxoacetyl) piperazine-1-carboxylate]
MIC [1]: > 128 µg/mL
MIC [2]: > 128 µg/mL
MIC [3]: > 128 µg/mL
MIC [4]: > 128 µg/mL
MIC [5]: > 128 µg/mL
MIC [6]: > 128 µg/mL
MIC [7]: > 128 µg/mL
MIC [8]: > 128 µg/mL
MIC [9]: > 128 µg/mL
MIC [10]: > 128 µg/mL
MIC [11]: > 128 µg/mL
MIC [12]: > 128 µg/mL
MIC [13]: > 128 µg/mL
MIC [14]: > 128 µg/mL
MIC [15]: > 128 µg/mL
MIC [16]: > 128 µg/mL
inhibition at 10 µM [17]: 39 ± 4%
inhibition at 1 µM [17]: 0%
inhibition at 10 µM [18]: 92 ± 3%
inhibition at 1 µM [18]: 0%
inhibition at 10 µM [19]: 81 ± 2%
inhibition at 1 µM [19]: 0%
MIC [20]: > 128 µg/mL
MIC [21]: > 128 µg/mL
MIC [22]: > 128 µg/mL
MIC [23]: 2 to 4 µg/mL (≈ 3.17 to 6.35 µM)
MIC [24]: > 128 µg/mL
MIC [25]: > 128 µg/mL
MIC [26]: > 128 µg/mL
MIC [27]: > 128 µg/mL
MIC [28]: > 128 µg/mL

CC(NC(=O)C(=O)c1c[nH]c2ccc(Br)cc12)c1c[nH]c2ccc(Br)cc12 (stereo not shown) [Compound 5, 2-(5-Bromo-1H-indol-3-yl)-N-(1-(5-bromo-1H-indol-3-yl)ethyl)-2-oxoacetamide]
MIC [1]: 1 µg/mL (≈ 2.04 µM)
MIC [2]: 128 µg/mL (≈ 262 µM)
MIC [3]: > 128 µg/mL
MIC [4]: > 128 µg/mL
MIC [5]: 32 µg/mL (≈ 65.4 µM)
MIC [6]: > 128 µg/mL
MIC [7]: 64 µg/mL (≈ 131 µM)
MIC [8]: 64 µg/mL (≈ 131 µM)
MIC [9]: 64 µg/mL (≈ 131 µM)
MIC [10]: > 128 µg/mL
MIC [11]: > 128 µg/mL
MIC [12]: > 128 µg/mL
MIC [13]: 32 µg/mL (≈ 65.4 µM)
MIC [14]: 32 µg/mL (≈ 65.4 µM)
MIC [15]: 64 µg/mL (≈ 131 µM)
MIC [16]: 64 µg/mL (≈ 131 µM)
inhibition at 10 µM [17]: 85 ± 2%
inhibition at 1 µM [17]: 6%
inhibition at 10 µM [18]: 91 ± 3%
inhibition at 1 µM [18]: 0%
inhibition at 10 µM [19]: 80 ± 3%
inhibition at 1 µM [19]: 10%
MIC [20]: 1 µg/mL (≈ 2.04 µM)
MIC [21]: 1 µg/mL (≈ 2.04 µM)
MIC [22]: 1 µg/mL (≈ 2.04 µM)
MIC [23]: 1 µg/mL (≈ 2.04 µM)
MIC [24]: 1 µg/mL (≈ 2.04 µM)
MIC [25]: 2 µg/mL (≈ 4.09 µM)
MIC [26]: 1 µg/mL (≈ 2.04 µM)
MIC [27]: 2 µg/mL (≈ 4.09 µM)
MIC [28]: 1 µg/mL (≈ 2.04 µM)

CC(C)(C)OC(=O)N1CCN(C(=O)C(=O)c2c[nH]c3ccccc23)C(c2c[nH]c3ccccc23)C1 (stereo not shown) [Compound 6c, tert-Butyl 4-(2-(1H-indol-3-yl)-2-oxoacetyl)-3-(1H-indol-3-yl)piperazine-1-carboxylate]
MIC [1]: > 128 µg/mL
MIC [2]: > 128 µg/mL
MIC [3]: > 128 µg/mL
MIC [4]: > 128 µg/mL
MIC [5]: > 128 µg/mL
MIC [6]: > 128 µg/mL
MIC [7]: > 128 µg/mL
MIC [8]: > 128 µg/mL
MIC [9]: > 128 µg/mL
MIC [10]: > 128 µg/mL
MIC [11]: > 128 µg/mL
MIC [12]: > 128 µg/mL
MIC [13]: > 128 µg/mL
MIC [14]: > 128 µg/mL
MIC [15]: > 128 µg/mL
MIC [16]: > 128 µg/mL
inhibition at 10 µM [17]: 6 ± 16%
inhibition at 1 µM [17]: 0%
inhibition at 10 µM [18]: 66 ± 8%
inhibition at 1 µM [18]: 0%
inhibition at 10 µM [19]: 53 ± 3%
inhibition at 1 µM [19]: 8%
MIC [20]: > 128 µg/mL
MIC [21]: > 128 µg/mL
MIC [22]: > 128 µg/mL
MIC [23]: > 128 µg/mL
MIC [24]: > 128 µg/mL
MIC [25]: > 128 µg/mL
MIC [26]: > 128 µg/mL
MIC [27]: > 128 µg/mL
MIC [28]: > 128 µg/mL

CC(C)(C)OC(=O)NCC(NC(=O)C(=O)c1c[nH]c2ccccc12)c1c[nH]c2ccccc12 (stereo not shown) [Compound 2, tert-Butyl(2-(2-(1H-indol-3-yl)-2-oxoacetamido)-2-(1H-indol-3-yl)ethyl)carbamate]
MIC [1]: > 128 µg/mL
MIC [2]: > 128 µg/mL
MIC [3]: > 128 µg/mL
MIC [4]: > 128 µg/mL
MIC [5]: > 128 µg/mL
MIC [6]: > 128 µg/mL
MIC [7]: > 128 µg/mL
MIC [8]: > 128 µg/mL
MIC [9]: > 128 µg/mL
MIC [10]: > 128 µg/mL
MIC [11]: > 128 µg/mL
MIC [12]: > 128 µg/mL
MIC [13]: > 128 µg/mL
MIC [14]: > 128 µg/mL
MIC [15]: > 128 µg/mL
MIC [16]: > 128 µg/mL
inhibition at 10 µM [17]: 100 ± 2%
inhibition at 1 µM [17]: 10 ± 0.5%
inhibition at 10 µM [18]: 97 ± 1%
inhibition at 1 µM [18]: 33%
inhibition at 10 µM [19]: 96 ± 1%
inhibition at 1 µM [19]: 53%
MIC [20]: > 128 µg/mL
MIC [21]: > 128 µg/mL
MIC [22]: > 128 µg/mL
MIC [23]: > 128 µg/mL
MIC [24]: > 128 µg/mL
MIC [25]: > 128 µg/mL
MIC [26]: > 128 µg/mL
MIC [27]: > 128 µg/mL
MIC [28]: > 128 µg/mL
